From PMC11537999, “Identification of human pregnane X receptor antagonists utilizing a high-throughput screening platform” (Frontiers in Pharmacology, 2024)

Columns and labels:
[1] = test system: CYP3A4 mRNA expression; test: CYP3A4 mRNA expression by qRT-PCR in HepaRG cells treated with compound alone; assay type: cell-based, human; details: 24 h, compound at its IC70 concentration, vs DMSO
Description: (§1) Fully differentiated NoSpin™ HepaRG™ cells (Lonza, Walkersville, Maryland) were seeded into 12-well collagen-coated plates (Corning) at a density of 8 × 10^5 cells/well using Williams’ E medium (ThermoFisher) supplemented with HepaRG™ thawing and plating medium supplement (Lonza), 25 U/mL penicillin, and 25 μg/mL streptomycin (Invitrogen). The cells were then placed into a 37°C and 5% CO2 incubator for 3 days including a media change before treatment. Cells were then treated with the vehicle control (final concentration of 0.1% DMSO), the positive controls, or test compounds for 24 h before harvesting.
(§2) Total RNA was extracted from the cell lysate using an RNeasy Mini kit (Qiagen) according to the manufacturer’s instructions. RNA was reverse transcribed to cDNA using a High-Capacity RNA-to-cDNA kit (Applied Biosystems). CYP3A4 and CYP2B6 mRNA expression were both measured and normalized to the glyceraldehyde-3-phosphate dehydrogenase (GAPDH) housekeeping gene. Real-time PCR was completed using a QuantStudio Real-Time PCR system (Applied Biosystems) with TaqMan probes (CYP3A4 Assay ID: Hs00604506_m1, CYP2B6 Assay ID: Hs04183483_g1, GAPDH Assay ID: Hs99999905_m1, ThermoFisher Scientific, Waltham, MA). Following amplification, induction values were calculated using the equation: Fold = 2^−ΔΔCt, where ΔCt represents the difference in number of cycles required to reach the Ct threshold between CYP3A4 or CYP2B6 and GAPDH, and ΔΔCt represents the relative change in these differences between the control (DMSO) and treatment groups. Experimental data are expressed as a mean of triplicate values ±SD. Statistical analysis was performed using one-way analysis of variance with post hoc Dunnett’s analysis. The statistical significance values were set at p < 0.05 (*), p < 0.01 (**), and p < 0.001 (***).
To overcome the previous screening limitations, we used this more physiologically relevant cell line, HepaRG cells, to run follow-up studies with the PXR antagonists identified from the primary screen which used immortalized cell lines without a metabolic component. Using HepaRG cells, the 20 potential PXR antagonists were treated for 24 h and harvested for mRNA (Supplementary Figure S1).
FIGURE 3 HepaRG cells were treated with the top 20 most promising PXR antagonists identified from the high-throughput screen. […] The concentrations for the test compounds were the IC70 values from the original NPACT screen. Real-time PCR was used to analyze the mRNA expression of CYP3A4. Each bar represents the mean ± SD in triplicate. *, p < 0.05; **, p < 0.01.

[2] = test system: CYP3A4 mRNA expression; test: Co-treatment pharmacological assay: CYP3A4 mRNA by qRT-PCR in HepaRG cells co-treated with rifampicin; assay type: cell-based, human; details: for inhibition of CYP3A4 mRNA expression under rifampicin co-treatment (in words): IC50, IC70 or IC90 concentration + 5 μM rifampicin
Description: as §1, §2
As previously mentioned, HepG2 cells are not metabolically competent and therefore use of HepaRG cells or human primary hepatocytes is a better choice to confirm PXR antagonists. […]

Compound: COc1cc(-c2cn(C3CCc4c(F)cccc4N(CC(F)(F)F)C3=O)nn2)ccc1-n1cnc(C)c1 (centres unmarked) [GSM2]
- inhibition of CYP3A4 mRNA expression (in words) [1]: significantly inhibited CYP3A4 mRNA expression
- CYP3A4 mRNA expression, average level ([2]; 15 μM compound + 5 μM rifampicin, DMSO = 1): 0.6 fold
- inhibition of CYP3A4 mRNA expression under rifampicin co-treatment (in words) [2]: clear concentration dependent inhibition of CYP3A4 mRNA expression

Compound: CC(=O)O[C@H]1C[C@@]2(C)[C@@H](C[C@@H](O)[C@H]3[C@@]4(C)CC[C@@H](O)[C@@H](C)[C@@H]4CC[C@@]32C)/C1=C(\CCC=C(C)C)C(=O)O [fusidic acid]
- inhibition of CYP3A4 mRNA expression (in words) [1]: significantly inhibited CYP3A4 mRNA expression
- inhibition of CYP3A4 mRNA expression under rifampicin co-treatment (in words) [2]: clear concentration dependent inhibition of CYP3A4 mRNA expression
